What was measured:
[1] = Intrinsic viscosity [.eta.]; assay type: physicochemical; conditions: 25° C., aqueous solution; concentration in g/100 ml
Experimental: The intrinsic viscosity, as used in the present invention, is [.eta.] defined by the following equation. [formula] wherein .eta.sp =(.eta.-.eta.o)/.eta.o =/.eta.o -1 in which .eta. is the viscosity (at 25° C. in aqueous solution) of the solution and .eta.o is the viscosity of the solvent; and C is the concentration in g/100 ml.

Sarcoma 180 [2] = experiment: Antitumor activity test using Sarcoma 180 in C3H/He mice; assay type: in vivo; conditions: intraperitoneal, once a day for 10 days, fifth week
Experimental: (§1) Starting 24 hours after the transplantation, the glucanpolyol of this invention was intraperitoneally administered once a day for 10 days. In the fifth week, the tumor was enucleated and its weight was compared with that in non-treated groups. The tumor inhibition ratio was calculated, and the number of tumors which completely regressed was observed.
(§2) The tumor inhibition ratio was calculated in accordance with the following equation. [formula] wherein C is the average weight of tumor in non-treated groups (10 mice per group),
(§3) T is the average weight of tumor in treated groups (10 mice per group).
(4) An antitumor activity test using Sarcoma 180 in C3H/He mice

Meth-A = experiment: Antitumor activity test using Meth-A in Balb/c mice; assay type: in vivo; conditions: intraperitoneal, once a day for 10 days, fifth week
Experimental: as §1, §2, §3
(3) An antitumor activity test using Meth-A in Balb/c mice

CCM-adenocarcinoma = experiment: Antitumor activity test using CCM-adenocarcinoma in ICR-JCL mice; assay type: in vivo; conditions: intraperitoneal, once a day for 10 days, fifth week
Experimental: as §1, with “The ascites cells of Sarcoma 180 were inoculated peritoneally in ICR-JCL mice having a body weight of about 23 g. […] Starting” for “Starting”
as §2, §3
(8) An antitumor activity test using CCM-adenocarcinoma in ICR-JCL mice
Six million CCM-adenocarcinoma cells were transplanted into the subcutaneous portion of the right inguinal part of ICR-JCL mice having a body weight of about 23 g, and then the same operation as in (1) above was performed.

Sarcoma 180 [3] = experiment: Antitumor activity test using Sarcoma 180 in C57 BL/6 mice; assay type: in vivo; conditions: intraperitoneal, once a day for 10 days, fifth week
Experimental: as §1, with “The ascites cells of Sarcoma 180 were inoculated peritoneally in ICR-JCL mice having a body weight of about 23 g. […] Starting” for “Starting”
as §2, §3
(6) An antitumor activity test using Sarcoma 180 in C57 BL/6 mice
Six million Sarcoma 180 cells were transplanted into the subcutaneous portion of the right inguinal part of the C57 BL/6 mice having a body weight of about 20 g, and then the same operation as in (1) above was performed.

[4] = test system: NTF-reticulum cell sarcoma; experiment: Antitumor activity test using NTF-reticulum cell sarcoma in ICR-JCL mice; assay type: in vivo; conditions: intraperitoneal, once a day for 10 days, fifth week
Experimental: as §1, with “The ascites cells of Sarcoma 180 were inoculated peritoneally in ICR-JCL mice having a body weight of about 23 g. […] Starting” for “Starting”
as §2, §3
(9) An antitumor activity test using NTF-reticulum cell sarcoma in ICR-JCL mice
Six million NFT-reticulum cell sarcoma cells were transplanted into the subcutaneous portion of the right inguinal part of ICR-JCL mice having a body weight of about 23 g, and then, the same operation as in (1) above was performed.

Sarcoma 180 [5] = experiment: Antitumor activity test using Sarcoma 180 in Balb/c mice; assay type: in vivo; conditions: intraperitoneal, once a day for 10 days, fifth week
Experimental: as §1, with “The ascites cells of Sarcoma 180 were inoculated peritoneally in ICR-JCL mice having a body weight of about 23 g. […] Starting” for “Starting”
as §2, §3
(5) An antitumor activity test using Sarcoma 180 in Balb/c mice
Six million Sarcoma 180 cells were transplanted into the subcutaneous portion of the right inguinal part of the Balb/c mice having a body weight of about 23 g, and then, the same operation as in (1 ) above was performed.

Sarcoma 180 [6] = experiment: Antitumor activity test using Sarcoma 180 in ICR-JCL mice; assay type: in vivo; conditions: intraperitoneal, once a day for 10 days, fifth week
Experimental: (1) An antitumor activity test using Sarcoma 180 in ICR-JCL mice
as §1, §2, §3

Ehrlich Carcinoma = experiment: Antitumor activity test using Ehrlich Carcinoma in ICR-JCL mice; assay type: in vivo; conditions: intraperitoneal, once a day for 10 days, fifth week
Experimental: as §1, §2, §3
(2) An antitumor activity test using Ehrlich Carcinoma in ICR-JCL mice

Sarcoma 180 [7] = experiment: Antitumor activity test using Sarcoma 180 in ddY mice; assay type: in vivo; conditions: intraperitoneal, once a day for 10 days, fifth week
Experimental: as §1, with “The ascites cells of Sarcoma 180 were inoculated peritoneally in ICR-JCL mice having a body weight of about 23 g. […] Starting” for “Starting”
as §2, §3
(7) An antitumor activity test using Sarcoma 180 in ddY mice
Six million Sarcoma 180 cells were transplanted into the subcutaneous portion of the right inguinal part of ddY mice having a body weight of about 23 g, and then, the same operation as in (1) above was performed.

ICR-JCL mice = experiment: Toxicity (LD50) on ICR-JCL mice; assay type: in vivo
Excerpt: The toxicity of the β-1,3-glucanpolyol of this invention is very low, and the LD50 values of the products obtained in Examples 1, 4 and 5, for example, on ICR-JCL mice are as shown in Table 10.

Substance: β-1,3-glucanpolyol [Example 2]
- Intrinsic viscosity [.eta.] [1]: 7.25 dL/g
- Average weight of tumor (Sarcoma 180 [2]; 5 mg/kg/day): 3.50 g
- Complete regression (Sarcoma 180 [2]; 5 mg/kg/day): 4/10
- Tumor inhibition ratio (Sarcoma 180 [2]; 5 mg/kg/day): 72.9%
- Average weight of tumor (Meth-A; 5 mg/kg/day): 6.73 g
- Complete regression (Meth-A; 5 mg/kg/day): 0/10
- Tumor inhibition ratio (Meth-A; 5 mg/kg/day): 49.6%
- Average weight of tumor (CCM-adenocarcinoma; 1 mg/kg/day): 0.61 g
- Complete regression (CCM-adenocarcinoma; 1 mg/kg/day): 8/10
- Tumor inhibition ratio (CCM-adenocarcinoma; 1 mg/kg/day): 95.0%
- Average weight of tumor (Sarcoma 180 [3]; 1 mg/kg/day): 0.21 g
- Complete regression (Sarcoma 180 [3]; 1 mg/kg/day): 8/10
- Tumor inhibition ratio (Sarcoma 180 [3]; 1 mg/kg/day): 94.1%
- Average weight of tumor ([4]; 1 mg/kg/day): 0.37 g
- Complete regression ([4]; 1 mg/kg/day): 8/10
- Tumor inhibition ratio ([4]; 1 mg/kg/day): 93.6%
- Average weight of tumor (Sarcoma 180 [5]; 1 mg/kg/day): 0.09 g
- Complete regression (Sarcoma 180 [5]; 1 mg/kg/day): 8/10
- Tumor inhibition ratio (Sarcoma 180 [5]; 1 mg/kg/day): 97.5%
- Average weight of tumor (Sarcoma 180 [6]; 5 mg/kg/day): 0.30 g
- Complete regression (Sarcoma 180 [6]; 5 mg/kg/day): 8/10
- Tumor inhibition ratio (Sarcoma 180 [6]; 5 mg/kg/day): 97.3%
- Average weight of tumor (Ehrlich Carcinoma; 1 mg/kg/day): 1.27 g
- Complete regression (Ehrlich Carcinoma; 1 mg/kg/day): 6/10
- Tumor inhibition ratio (Ehrlich Carcinoma; 1 mg/kg/day): 91.5%
- Average weight of tumor (Ehrlich Carcinoma; 5 mg/kg/day): 0.83 g
- Complete regression (Ehrlich Carcinoma; 5 mg/kg/day): 7/10
- Tumor inhibition ratio (Ehrlich Carcinoma; 5 mg/kg/day): 94.4%
- Average weight of tumor (Sarcoma 180 [7]; 1 mg/kg/day): 1.08 g
- Complete regression (Sarcoma 180 [7]; 1 mg/kg/day): 7/10
- Tumor inhibition ratio (Sarcoma 180 [7]; 1 mg/kg/day): 90.3%

Substance: β-1,3-glucanpolyol [Example 4]
- Intrinsic viscosity [.eta.] [1]: 3.27 dL/g
- Average weight of tumor (Sarcoma 180 [2]; 1 mg/kg/day): 5.62 g
- Complete regression (Sarcoma 180 [2]; 1 mg/kg/day): 0/10
- Tumor inhibition ratio (Sarcoma 180 [2]; 1 mg/kg/day): 56.5%
- Average weight of tumor (Sarcoma 180 [2]; 5 mg/kg/day): 4.93 g
- Complete regression (Sarcoma 180 [2]; 5 mg/kg/day): 1/10
- Tumor inhibition ratio (Sarcoma 180 [2]; 5 mg/kg/day): 61.8%
- Average weight of tumor (Meth-A; 5 mg/kg/day): 7.99 g
- Complete regression (Meth-A; 5 mg/kg/day): 0/10
- Tumor inhibition ratio (Meth-A; 5 mg/kg/day): 40.2%
- Average weight of tumor (Meth-A; 20 mg/kg/day): 9.33 g
- Complete regression (Meth-A; 20 mg/kg/day): 0/10
- Tumor inhibition ratio (Meth-A; 20 mg/kg/day): 30.2%
- Toxicity after ultrasonic treatment (ICR-JCL mice; effect of ultrasonic treatment): lower toxicity
- LD50 Intraperitoneal administration (ICR-JCL mice; intraperitoneal, ICR-JCL mice): above 5 g/kg
- LD50 Intravenous administration (ICR-JCL mice; intravenous, ICR-JCL mice): 1500 mg/kg
- LD50 Oral administration (ICR-JCL mice; oral, ICR-JCL mice): above 20 g/kg
- Average weight of tumor (CCM-adenocarcinoma; 1 mg/kg/day): 0 g
- Complete regression (CCM-adenocarcinoma; 1 mg/kg/day): 10/10
- Tumor inhibition ratio (CCM-adenocarcinoma; 1 mg/kg/day): 100%
- Average weight of tumor (CCM-adenocarcinoma; 5 mg/kg/day): 0.23 g
- Complete regression (CCM-adenocarcinoma; 5 mg/kg/day): 8/10
- Tumor inhibition ratio (CCM-adenocarcinoma; 5 mg/kg/day): 98.1%
- Average weight of tumor (Sarcoma 180 [3]; 1 mg/kg/day): 0.13 g
- Complete regression (Sarcoma 180 [3]; 1 mg/kg/day): 9/10
- Tumor inhibition ratio (Sarcoma 180 [3]; 1 mg/kg/day): 96.4%
- Average weight of tumor (Sarcoma 180 [3]; 5 mg/kg/day): 0.12 g
- Complete regression (Sarcoma 180 [3]; 5 mg/kg/day): 9/10
- Tumor inhibition ratio (Sarcoma 180 [3]; 5 mg/kg/day): 96.6%
- Average weight of tumor ([4]; 1 mg/kg/day): 0.67 g
- Complete regression ([4]; 1 mg/kg/day): 8/10
- Tumor inhibition ratio ([4]; 1 mg/kg/day): 88.3%
- Average weight of tumor ([4]; 5 mg/kg/day): 0.83 g
- Complete regression ([4]; 5 mg/kg/day): 6/10
- Tumor inhibition ratio ([4]; 5 mg/kg/day): 85.6%
- Average weight of tumor (Sarcoma 180 [5]; 1 mg/kg/day): 0 g
- Complete regression (Sarcoma 180 [5]; 1 mg/kg/day): 10/10
- Tumor inhibition ratio (Sarcoma 180 [5]; 1 mg/kg/day): 100%
- Average weight of tumor (Sarcoma 180 [5]; 5 mg/kg/day): 0 g
- Complete regression (Sarcoma 180 [5]; 5 mg/kg/day): 10/10
- Tumor inhibition ratio (Sarcoma 180 [5]; 5 mg/kg/day): 100%
- Average weight of tumor (Sarcoma 180 [6]; 1 mg/kg/day): 0.92 g
- Complete regression (Sarcoma 180 [6]; 1 mg/kg/day): 6/10
- Tumor inhibition ratio (Sarcoma 180 [6]; 1 mg/kg/day): 91.6%
- Average weight of tumor (Sarcoma 180 [6]; 5 mg/kg/day): 0.41 g
- Complete regression (Sarcoma 180 [6]; 5 mg/kg/day): 8/10
- Tumor inhibition ratio (Sarcoma 180 [6]; 5 mg/kg/day): 96.3%
- Average weight of tumor (Ehrlich Carcinoma; 1 mg/kg/day): 1.48 g
- Complete regression (Ehrlich Carcinoma; 1 mg/kg/day): 6/10
- Tumor inhibition ratio (Ehrlich Carcinoma; 1 mg/kg/day): 90.1%
- Average weight of tumor (Ehrlich Carcinoma; 5 mg/kg/day): 0.97 g
- Complete regression (Ehrlich Carcinoma; 5 mg/kg/day): 6/10
- Tumor inhibition ratio (Ehrlich Carcinoma; 5 mg/kg/day): 93.5%
- Average weight of tumor (Sarcoma 180 [7]; 1 mg/kg/day): 0.25 g
- Complete regression (Sarcoma 180 [7]; 1 mg/kg/day): 8/10
- Tumor inhibition ratio (Sarcoma 180 [7]; 1 mg/kg/day): 97.7%
- Average weight of tumor (Sarcoma 180 [7]; 5 mg/kg/day): 0.54 g
- Complete regression (Sarcoma 180 [7]; 5 mg/kg/day): 8/10
- Tumor inhibition ratio (Sarcoma 180 [7]; 5 mg/kg/day): 95.2%

Reference: patent US4398023A, “β-1,3-Glucanpolyol, process for preparation thereof, and utilization thereof” (Meito Sangyo Kabushiki Kaisha, priority 1979, dated 1983)
